From patent publication US20080033026A1, “Antimicrobial compositions, methods and systems” (priority 2006, published 2008)

Key:
[1] = test system: Listeria monocytogenes (ATCC 19111); assay: Preservative effectiveness on food pathogens (US Pharmacopoeia 23); assay type: cell-based
Experimental: (§1) The effectiveness of 9-decenoic acid on food pathogens was determined using the protocol on preservative effectiveness found in the US Pharmacopoeia 23, 1995.
(§2) Stock cultures of the Listeria monocytogenes (ATCC 1911-1), Salmonella enteritidis (ATCC 13076) and Campylobacter jejuni (ATCC 29428) were transferred for at least three consecutives days on Trypticase Soy Agar (TSA) and incubated at 30-35° C. for 18-24 hours. On the day of the test, the cells were washed from the agar surface with sterile saline containing 0.05% w/v Polysorbate 80 (SS+) and the suspension was centrifuged at 2000 rpm for 15 minutes and resuspended in SS+. The suspension was diluted to approximately 10^8 CFU/ml.
(§3) The 9-decenoic acid was diluted in the same manner as previously described to achieve concentrations of 0.25%, 0.125%, 0.0625%, 0.03%, 0.015%, 0.0078% and 0.0039%. The samples were dispensed in 20 ml aliquots in sterile test tubes. For each concentration tested, a 0.1 ml aliquot of each inoculum was added to a final concentration of 10^5 to 10^6 CFU/ml. The tubes were incubated at room temperature and sampled on days 0, 1, 2, 4, 7, 14, 21 and 28.
(§4) At each sample point, 1.0 ml aliquots were withdrawn, serially diluted and plated in triplicate on TSA. The plates were incubated at 30-35° C. for 2-4 days. The colonies were counted and the average CFU/ml was calculated. Controls for purity, viability and sterility were performed as described previously.
(§5) According to the US Pharmacopoeia, a test compound is an effective preservative if the concentrations of viable bacteria remain at or below the initial concentrations during the first fourteen days and after 28 days.
(§6) Additionally, test organisms in Tables 9-11 were exposed to the 9-decenoic acid for several minutes before analysis at Day 0. As shown in the Tables 9-11, significant biocidal activity was observed even within this short time period for the test organisms, illustrating the effectiveness of 9-decenoic acid as a biocidal agent.

[2] = test system: Salmonella enteritidis (ATCC 13076); assay: as above; assay type: cell-based
Experimental: as §1, §2, §3, §4, §5, §6

[3] = 0.0078% 9-decenoic acid, exposure day 0
[4] = 0.0078% 9-decenoic acid, exposure day 1
[5] = 0.0078% 9-decenoic acid, exposure day 2
[6] = 0.0078% 9-decenoic acid, exposure day 4
[7] = 0.0078% 9-decenoic acid, exposure day 7
[8] = 0.0078% 9-decenoic acid, exposure day 14
[9] = 0.0078% 9-decenoic acid, exposure day 21
[10] = 0.0078% 9-decenoic acid, exposure day 28
[11] = 0.015% 9-decenoic acid, exposure day 0
[12] = 0.015% 9-decenoic acid, exposure day 1
[13] = 0.015% 9-decenoic acid, exposure day 2
[14] = 0.015% 9-decenoic acid, exposure day 4
[15] = 0.015% 9-decenoic acid, exposure day 7
[16] = 0.015% 9-decenoic acid, exposure day 14
[17] = 0.015% 9-decenoic acid, exposure day 21
[18] = 0.015% 9-decenoic acid, exposure day 28
[19] = 0.03% 9-decenoic acid, exposure day 0
[20] = 0.03% 9-decenoic acid, exposure day 1
[21] = 0.03% 9-decenoic acid, exposure day 2
[22] = 0.03% 9-decenoic acid, exposure day 4
[23] = 0.03% 9-decenoic acid, exposure day 7
[24] = 0.03% 9-decenoic acid, exposure day 14
[25] = 0.03% 9-decenoic acid, exposure day 21
[26] = 0.03% 9-decenoic acid, exposure day 28
[27] = US Pharmacopoeia definition, 28 days

SMILES: C=CCCCCCCCC(=O)O [9-decenoic acid]
- Log reduction [1, 3]: 1.0 log
- Log reduction [1, 4]: 5.1 log
- Log reduction [1, 5]: 5.1 log
- Log reduction [1, 6]: 5.1 log
- Log reduction [1, 7]: 5.1 log
- Log reduction [1, 8]: 5.1 log
- Log reduction [1, 9]: 5.1 log
- Log reduction [1, 10]: 5.1 log
- Log reduction [1, 11]: 5.1 log
- Log reduction [1, 12]: 5.1 log
- Log reduction [1, 13]: 5.1 log
- Log reduction [1, 14]: 5.1 log
- Log reduction [1, 15]: 5.1 log
- Log reduction [1, 16]: 5.1 log
- Log reduction [1, 17]: 5.1 log
- Log reduction [1, 18]: 5.1 log
- Log reduction [1, 19]: 5.1 log
- Log reduction [1, 20]: 5.1 log
- Log reduction [1, 21]: 5.1 log
- Log reduction [1, 22]: 5.1 log
- Log reduction [1, 23]: 5.1 log
- Log reduction [1, 24]: 5.1 log
- Log reduction [1, 25]: 5.1 log
- Log reduction [1, 26]: 5.1 log
- Concentration at which effective preservative [1, 27]: ≤ 0.0078%
- Exposure time at which bactericidal ([1]; at 0.0078%): 1 days
- Exposure time at which bactericidal ([1]; at 150 ppm): 0 days
- Log reduction [2, 3]: 0.53 log
- Log reduction [2, 4]: 3.2 log
- Log reduction [2, 5]: 4.1 log
- Log reduction [2, 6]: 4.0 log
- Log reduction [2, 7]: 5.1 log
- Log reduction [2, 8]: 5.1 log
- Log reduction [2, 9]: 5.1 log
- Log reduction [2, 10]: 5.1 log
- Log reduction [2, 11]: 5.1 log
- Log reduction [2, 12]: 5.1 log
- Log reduction [2, 13]: 5.1 log
- Log reduction [2, 14]: 5.1 log
- Log reduction [2, 15]: 5.1 log
- Log reduction [2, 16]: 5.1 log
- Log reduction [2, 17]: 5.1 log
- Log reduction [2, 18]: 5.1 log
- Log reduction [2, 19]: 5.1 log
- Log reduction [2, 20]: 5.1 log
- Log reduction [2, 21]: 5.1 log
- Log reduction [2, 22]: 5.1 log
- Log reduction [2, 23]: 5.1 log
- Log reduction [2, 24]: 5.1 log
- Log reduction [2, 25]: 5.1 log
- Log reduction [2, 26]: 5.1 log
- Concentration at which effective preservative [2, 27]: ≤ 0.0078%
- Exposure time at which bactericidal ([2]; at 0.0078%): 7 days
- Exposure time at which bactericidal ([2]; at 0.015%): 0 days
